The text below walks through data of PubChem BioAssay AID463199 (Broad Institute, 2010).

The source made the active and inactive calls.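 The calls were made as follows: active = AC50, the dose giving half-maximal effect, exceeds a fixed cutoff for a compound that rescues yeast growth under heat; inactive = the rest, inconclusive results apart.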 A value given as a limit tells only on which side of the number the result lay.

For this assay, the system named is S. cerevisiae Burl-1 ts mutant growth, BacTiter-Glo, 38.5C 24 h. As to the kind of experiment: growth induction of Burl-1 ts yeast mutant, dose response, counter-screen for SUMOylation pathway inhibitor project, whole organism, S. cerevisiae, luminescence (AID 463199).
With `COc1cccc(C(=O)N2CCN(S(=O)(=O)Cc3ccccc3)CC2)c1OC`, the AC50 was > 42 µM (inactive).
With `COC(=O)c1ccc2[nH]c(C(C)(C)O)c(C)c2c1`, the AC50 is > 42 µM (inactive).
For the molecule `O=C(Nc1ccc([N+](=O)[O-])cn1)c1ccc2c(c1)OCO2`, the AC50 is > 42 µM (inactive).
In the case of `CC1=CC(=O)C=CC1(C)C(Cl)(Cl)Cl` (stereo unspecified), the AC50 was > 42 µM (inactive).
As to `O=c1nc2ccc(Cl)cn2c2ccc(S(=O)(=O)N3CCOCC3)cc12`, the AC50 is > 42 µM (inactive).
As for `Cc1ccc(/C=C/C(=O)O)cc1S(=O)(=O)N(CCO)CCO`, the AC50 is > 42 µM (inactive).
For `COC(=O)c1sc2ccccc2c1NC(=O)c1ccc(S(=O)(=O)N2CCCC(C)C2)cc1` (stereo unspecified), the AC50 is > 42 µM (inactive).
As to `CCOC(=O)c1sc(N/N=C/c2ccc(N(C)C)cc2)nc1C`, the AC50 is > 42 µM (inactive).
Turning to `COc1ccc(NS(=O)(=O)c2ccc(OCC(=O)N3CCOCC3)cc2)cc1Cl`, the AC50 is > 42 µM (inactive).
The figure for `CCOc1ccccc1NC(=O)CSc1nc(N)c(C#N)cc1C#N` is > 42 µM (inactive); for `Cc1ccc(NC(=O)Cn2c(CCC(=O)O)ccc2-c2cccs2)cc1` it is > 42 µM (inactive); for `COc1ccc(OC)c2c(N)c(C#N)c(C(F)(F)C(F)(F)F)nc12` it is > 42 µM (inactive).
Turning to `COCCn1c(SCC(=O)NCc2cccs2)nnc1-c1ccc(OC)cc1`, the AC50 was > 42 µM (inactive).
`COc1ccc(C2C(C(=O)Nc3cc(OC)c(OC)c(OC)c3)c3ccccc3C(=O)N2C)cc1` (stereo unspecified): the AC50 is > 42 µM (inactive).
For the molecule `O=C1NC(Cc2c[nH]c3ccccc23)C(=O)N1Cc1ccc(CN2C(=O)NC(Cc3c[nH]c4ccccc34)C2=O)cc1` (stereo unspecified), the AC50 is > 42 µM (inactive).
As for `CCOC(=O)C1=C(C)Nc2ncnn2C1/C=C/c1ccccc1` (stereo unspecified), the AC50 is > 42 µM (inactive).
On to `COc1cc2c(cc1OC)C(c1ccc(SC)cc1)CC(=O)N2` (stereo unspecified), for which the AC50 is > 42 µM (inactive).
In the case of `COc1ccc(CN2CCN(C(=O)c3cc(-c4cccnc4)nc4ccc(Cl)cc34)CC2)c(OC)c1OC`, the AC50 was > 42 µM (inactive).
For the molecule `Cc1nc(N2CCN(c3ccccn3)CC2)c2c(C)c(C(=O)N3CCN(c4ccccc4F)CC3)sc2n1`, the AC50 is > 42 µM (inactive).
For the molecule `CCOc1ccc(-c2c(C(=O)N/N=C/c3ccncc3)nnn2-c2nonc2N)cc1`, the AC50 was > 42 µM (inactive).
The figure for `COc1ccc(C2SCC(=O)Nc3c2c(=O)[nH]n3C2CCCCC2)cc1` (stereo unspecified) is > 42 µM (inactive); for `Cc1cc(C)c(S(=O)(=O)c2cccc(C)c2C)c(=O)[nH]1` it is > 42 µM (inactive); for `CCOc1ccccc1NC(=O)c1ccc2c(c1)C(=O)N(CC(C)C)C2=O` it is > 42 µM (inactive).
The figure for `NC1=NC2(CCCC2)N=C(Nc2ccccc2)N1` is > 42 µM (inactive); for `CCNC(=O)NC(C(=O)OC)C12CC3CC(CC(C3)C1)C2` (stereo unspecified) it is > 42 µM (inactive).
The figure for `CCN(CCn1cccn1)C(=O)C1CCC(=O)N(CCc2cccc(F)c2)C1` (stereo unspecified) is > 42 µM (inactive).
Turning to `Nc1ccc(Oc2ccccc2-c2ccccc2)cc1`, the AC50 is > 42 µM (inactive).
The figure for `CC(=O)c1ccc(Oc2cc(C)nc(N3CCOCC3)n2)cc1` is > 42 µM (inactive); for `Cc1ccc(S(=O)(=O)N2c3ccc(S(N)(=O)=O)cc3CC2C)cc1` (stereo unspecified) it is > 42 µM (inactive); for `Oc1c(Br)cc(Br)cc1C=Nc1ccc2[nH]ncc2c1` it is > 42 µM (inactive).
Regarding `CCOc1ccc(C(=O)Nc2ccc(N3CCN(C)CC3)cc2)cc1[N+](=O)[O-]`, the AC50 is > 42 µM (inactive).
With `Cc1ccc(-c2csc(C3=C(O)CN(NC(=O)c4ccco4)C3=N)n2)cc1`, the AC50 was > 42 µM (inactive).
`CCCCCCNc1c(C(=O)OCC)c(=O)[nH]c2ccccc12`: the AC50 was > 42 µM (inactive).
`CN(C(=O)CSc1nc(-c2ccccc2)c(-c2ccccc2)o1)C1CCS(=O)(=O)C1` (stereo unspecified): the AC50 was > 42 µM (inactive).
For `CCN(CC)C(=O)C1CCCN(c2ccc([N+](=O)[O-])cc2/C=N/NC(=O)c2cccc(Br)c2)C1` (stereo unspecified), the AC50 is > 42 µM (inactive).
With `Cc1ccc(NS(=O)(=O)c2csc(C(N)=O)c2)cc1C`, the AC50 was > 42 µM (inactive).
The figure for `CCCCNC(=O)C1C2C=CC3(CN(Cc4ccc(C)cc4)C(=O)C13)O2` (stereo unspecified) is > 42 µM (inactive); for `Cc1ccnc(NC(=O)CC(c2ccccc2)c2ccccc2)n1` it is > 42 µM (inactive); for `COc1ccccc1/C=C/C(=O)NC(=S)N1CCOCC1` it is > 42 µM (inactive).
On to `Cc1ccc(/C=C/C(=O)OCC(=O)N(CC(C)C)c2c(N)n(Cc3ccccc3)c(=O)[nH]c2=O)o1`, for which the AC50 was > 21 µM (inactive).
The figure for `C/C(CC(=O)NC1CCCCC1)=N\NC(=O)Cc1ccc(-c2ccccc2)cc1` is > 42 µM (inactive); for `CCCCn1c(/C=N/Nc2nc3ccccc3[nH]2)nc2ccccc21` it is > 42 µM (inactive).
The figure for `Cc1ccc(C(C(=O)Nc2ccc3c(c2)OCO3)N(C)C(=O)/C=C\c2ccc3c(c2)OCO3)cc1` (stereo unspecified) is > 42 µM (inactive); for `O=C(Nc1ccc(Cl)cc1)C1=Cc2ccccc2OC1` it is > 42 µM (inactive); for `COc1ccc(CCNC(=O)Cn2nnc(-c3ccc(N4CCOCC4)cc3)n2)cc1OC` it is > 42 µM (inactive).
As for `COc1cc(CNCc2ccc3c(c2)OCO3)c([N+](=O)[O-])cc1OC`, the AC50 was > 42 µM (inactive).
In the case of `Cc1c(Cl)cccc1NC(=S)NCCCN(C)C`, the AC50 is > 42 µM (inactive).
Take `CCCCNS(=O)(=O)c1ccc(OC)cc1`: the AC50 was > 42 µM (inactive).
In the case of `O=S(=O)(CCN1CCCCC1)Oc1ccc(Cl)cc1Cl`, the AC50 is > 42 µM (inactive).
For `CC(=O)/C(N)=N/Nc1cccc(Cl)c1` the value was > 42 µM (inactive); for `COc1ccc(-c2cc(C#N)nc(N3CCN(c4ccccc4)CC3)n2)cc1`, > 42 µM (inactive); for `COC(=O)c1ccccc1N(C)S(C)(=O)=O`, > 42 µM (inactive).
Take `COc1ccc(NC(=O)CCC(=O)Nc2nnc(C(F)(F)F)s2)c(OC)c1`: the AC50 is > 42 µM (inactive).
Consider `c1ccc(N2CCN(C3CCSC3)CC2)cc1` (stereo unspecified), for which the AC50 is > 42 µM (inactive).
Consider `O=C(NCc1ccccc1Cl)c1ccc2c(c1)OCO2`, for which the AC50 is > 42 µM (inactive).
On to `CC(=O)c1ccccc1C(=O)N1CCCC(N2CCN(Cc3ccc4c(c3)OCO4)CC2)C1` (stereo unspecified), for which the AC50 was > 42 µM (inactive).
`O=C(OCc1ccccc1)c1cccc(-c2nnn(Cc3ccccc3)n2)c1`: the AC50 is > 42 µM (inactive).
As for `COc1ccc(/C=C2\SC(=S)N(CCCC(=O)Nc3cc(C)on3)C2=O)cc1OC`, the AC50 is > 42 µM (inactive).
Turning to `COc1ccc(NC(=O)Cn2nnc(C(=O)Nc3ccc(F)c(Cl)c3)c2N)cc1`, the AC50 is > 42 µM (inactive).
The figure for `CC(C)CCCN1CCN=C1Nc1ccccc1` is > 42 µM (inactive); for `Cc1nnc(SCC(=O)NC(C)(C)C)n1NCc1ccc(Cl)cc1` it is > 42 µM (inactive); for `CCOC(=O)c1c(C)n(C)c2cc(-c3ccc(C)cc3)c(O)cc12` it is > 42 µM (inactive).
Take `COc1ccc(OC)c(CCNC(=O)c2ccc3c(c2)N(Cc2ccc(F)cc2)CCS3)c1`: the AC50 was > 42 µM (inactive).
For `Cc1nc2ccc(NC(=O)c3ccc(S(=O)(=O)N4CCOCC4)cc3)cc2s1` the value was > 42 µM (inactive).
As for `CCCCC1=CC2=CC(=O)C(C)(OC(=O)CC)C(=O)C2=CN1CCCOC(C)C` (stereo unspecified), the AC50 is > 42 µM (inactive).
For the molecule `O=C(C1CCN(C2CC(=O)N(c3cccc(Cl)c3)C2=O)CC1)N1CCCC1` (stereo unspecified), the AC50 was > 42 µM (inactive).
The figure for `O=C(c1ccc(F)cc1)C(CN1CCOCC1)c1ccccc1` (stereo unspecified) is > 42 µM (inactive); for `CCCNCc1cc(OCC)c(OCC(N)=O)cc1Br` it is > 42 µM (inactive); for `O=S(=O)(Nn1c(O)c(C=C2N=c3ccccc3=N2)sc1=S)c1ccccc1` it is > 42 µM (inactive).
Consider `Cc1cccc(N(Cc2ccccc2)C(=O)CSC(C)C(=O)Nc2cc(C)on2)c1` (stereo unspecified), for which the AC50 is > 42 µM (inactive).
As to `O=C(CCSc1ccccc1)NNC(=O)c1ccccc1F`, the AC50 was > 42 µM (inactive).
In the case of `COc1ccc(NC2CCCN(C(=O)c3csc(C)n3)C2)cc1` (stereo unspecified), the AC50 is > 42 µM (inactive).
For `CSc1cccc(NC(=S)N2CCCN(Cc3ccccc3F)C2)c1` the value was > 42 µM (inactive); for `COc1ccccc1CNc1ncnc2c1nnn2Cc1ccccc1`, > 42 µM (inactive); for `CN1C(=O)C(=Cc2cn(CC(=O)N3CCCC3)c3ccccc23)C(=O)N(C)C1=O`, > 42 µM (inactive).
Consider `O=C(NC(=S)Nc1ccccc1N1CCCC1)c1ccc([N+](=O)[O-])cc1`, for which the AC50 is > 42 µM (inactive).
Consider `Fc1ccc2nc(C3CCN(Cc4nc(CC5CC5)no4)CC3)[nH]c2c1`, for which the AC50 is > 42 µM (inactive).
With `C/C(=N\NC(=O)c1cccc(N/N=C(\C)c2ccc([N+](=O)[O-])cc2)c1)c1ccc([N+](=O)[O-])cc1`, the AC50 is > 42 µM (inactive).
The figure for `CCC1CCCCN1CCCNC(=O)C1CCC(CNS(=O)(=O)c2c(C)cc(C)cc2C)CC1` (stereo unspecified) is > 42 µM (inactive); for `CCOC(=O)c1ccccc1NC(=O)C1CC(=O)N(C2CCCCC2)C1` (stereo unspecified) it is > 42 µM (inactive).
Turning to `COC(=O)c1sc(NC(=O)c2ccc(Cn3cc(Cl)cn3)o2)c(C#N)c1C`, the AC50 was > 42 µM (inactive).
Turning to `C=CCNC(=O)c1cc(-c2cccnc2)nc2ccccc12`, the AC50 was > 42 µM (inactive).
`Cc1cc(=O)oc2ccc(OC(=O)CC(C)C)cc12`: the AC50 was > 42 µM (inactive).
Regarding `CSc1cccc(N2C(=O)C3CCCN3C2=S)c1` (stereo unspecified), the AC50 is > 42 µM (inactive).
Take `Cc1nc2ccccc2n(CC(=O)Nc2cc(Cl)cc(Cl)c2)c1=O`: the AC50 was > 42 µM (inactive).
With `CC(=O)N(C(C)=O)c1c(C#N)c(C)n(-c2ccccc2)c1C(=O)c1ccccc1`, the AC50 is > 42 µM (inactive).
